Reference: ChEMBL document CHEMBL4715811, “Antagonists of Orexin Receptors as Potential Treatment of Sleep Disorders, Obesity, Eating Disorders, and Other Neurological and Psychiatric Disorders” (ACS Med Chem Lett, 2016)

Assays:
Orexin receptor type 2 = target: T1, Orexin receptor type 2 (Homo sapiens, UniProt O43614); test: Antagonist activity at human OX2R expressed in CHO cells assessed as inhibition of orexin A-induced intracellular Ca2+ release by FLIPR assay; type: functional, cell-based
T1 sequence (O43614 whole entry): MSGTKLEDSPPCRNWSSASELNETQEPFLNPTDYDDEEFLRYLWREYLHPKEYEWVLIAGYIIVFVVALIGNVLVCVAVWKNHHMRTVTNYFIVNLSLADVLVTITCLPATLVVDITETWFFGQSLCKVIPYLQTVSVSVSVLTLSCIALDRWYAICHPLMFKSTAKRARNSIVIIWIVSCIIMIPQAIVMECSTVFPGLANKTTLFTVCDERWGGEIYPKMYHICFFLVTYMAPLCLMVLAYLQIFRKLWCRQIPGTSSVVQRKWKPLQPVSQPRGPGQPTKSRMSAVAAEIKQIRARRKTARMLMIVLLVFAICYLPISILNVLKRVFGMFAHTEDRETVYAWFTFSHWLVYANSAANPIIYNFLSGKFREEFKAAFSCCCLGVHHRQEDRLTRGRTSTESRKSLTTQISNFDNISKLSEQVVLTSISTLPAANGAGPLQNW

[1] = target: T2, Orexin/Hypocretin receptor type 1 (Homo sapiens, UniProt O43613); test: Antagonist activity at human OX1R expressed in CHO cells assessed as inhibition of orexin A-induced intracellular Ca2+ release by FLIPR assay; type: functional, cell-based
T2 sequence (O43613 whole entry): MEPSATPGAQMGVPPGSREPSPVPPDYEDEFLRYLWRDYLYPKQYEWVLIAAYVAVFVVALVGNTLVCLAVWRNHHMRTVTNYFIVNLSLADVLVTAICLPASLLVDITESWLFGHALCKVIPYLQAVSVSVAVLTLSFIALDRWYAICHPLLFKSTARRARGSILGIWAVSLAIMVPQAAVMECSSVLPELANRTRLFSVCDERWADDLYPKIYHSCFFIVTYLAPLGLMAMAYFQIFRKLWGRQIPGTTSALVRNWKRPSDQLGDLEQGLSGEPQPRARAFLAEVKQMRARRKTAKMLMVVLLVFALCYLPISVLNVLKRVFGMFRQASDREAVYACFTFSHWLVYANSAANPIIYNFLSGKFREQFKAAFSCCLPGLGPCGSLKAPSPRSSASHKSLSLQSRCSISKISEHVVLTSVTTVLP

Row | SMILES | IC50 (Orexin receptor type 2) | IC50 [1]
1 | CC[C@](C)(O)c1nc([C@@H]2CC[C@@H](C)N(C(=O)c3cscc3-n3nccn3)C2)oc1C | 0.018 µM | 9.77 µM
2 | C[C@@H]1CC[C@@H](c2nc(CN(C)C)c(-c3ccccc3)o2)CN1C(=O)c1ccccc1-n1nccn1 | 0.983 µM | 
3 | CCOc1ccccc1C(=O)N1C[C@H](c2nc(C(C)(C)O)c(C)o2)CC[C@H]1C | 0.012 µM | 
